Where two headings read alike, the source gives them in different places. Where a SMILES comes first, the peptide text is derived from it. Where no end group is shown, it is not given here. The star is where a group is joined. X1 = CC(C)(S)CNCCN(CCCCC(=O)*)CC(C)(C)S
What was measured:
[1] = Scintigraphic imaging and biodistribution of Tc-99m labeled peptides in E. coli-infected rabbits; assay type: in vivo, New Zealand white rabbits; conditions: rabbit, in vivo, iv
Procedure: (§1) After 24 h, the animals were sedated by i.m. injection of ketamine and xylazine, and then injected i.v. with Tc-99m labeled peptide (≤150 μg, 2-10 mCi). The animals were positioned supine in the field of view of a gamma camera (LEAP collimator/photopeaked for Tc-99m) and imaged over the first hour post-injection, and then at approximately 1 h intervals over the next three hours post injection. Animals were allowed to recover between image acquisitions and re-anesthetized as needed.
(§2) Upon completion of the final imaging, each animal was sacrificed by overdose of phenobarbital i.v. and dissected to obtain samples of blood and of infected and control muscle tissue. The tissue samples were weighed, and along with a standard amount of the injected dose, were counted using a gamma counter, and the percent injected dose (per gram of tissue) remaining in the tissues was determined. Ratios of percent of injected dose per gram of infected versus non-infected muscle tissue, and of infected muscle tissue versus blood, were calculated for each peptide. Scintiphotos of whole body and leg images of a rabbit injected with a Tc-99m labeled reagent of the invention, having the formula

[2] = system: sites of infection (E. coli, left calf muscle); assay: as above; assay type: in vivo, New Zealand white rabbits; conditions: for Ratio of Infected/Blood / Ratio of Infected/Control: ratio of % ID/g; for Ratio of Infected/Blood: infected muscle tissue versus blood; for Ratio of Infected/Control: infected versus non-infected muscle tissue; for Infected Muscle (% ID/g): Tc-99m labeled peptide i.v. (≤150 μg, 2-10 mCi), 24 h after i.m. E. coli inoculation, tissue taken after final imaging, percent injected dose per gram tissue; for Blood (% ID/g) / Control Muscle (% ID/g): rabbit, in vivo, iv
Procedure: as §1, §2

Compound	tissue uptake ([1]; Blood (% ID/g))	tissue uptake ([1]; Control Muscle (% ID/g))	tissue uptake ([1]; Tc-99m labeled peptide i.v. (≤150 μg, 2-10 mCi), 24 h after i.m. E. coli inoculation, tissue taken after final imaging, percent injected dose per gram tissue, read-out: Infected Muscle (% ID/g))	Ratio of Infected/Blood [2]	Ratio of Infected/Control [2]	Infected Muscle (% ID/g) [2]	Blood (% ID/g) [2]	Control Muscle (% ID/g) [2]	Scintigraphic images (FIG. 1): localization of radioactivity, infected leg versus contralateral leg ([2]; gamma camera, whole body and leg images of a rabbit injected with the Tc-99m labeled reagent)
CC[C@H](C)[C@H](NC(=O)[C@H](CCCCN)NC(=O)[C@H](CCCCN)NC(=O)[C@H](Cc1ccc(O)cc1)NC(=O)[C@H](CC(C)C)NC(=O)[C@@H]1CCCN1C(=O)CNC(=O)CNC(=O)CCCCN(CCNCC(C)(C)S)CC(C)(C)S)C(=O)N[C@H](C(=O)N[C@@H](CCCCN)C(=O)N[C@@H](CCCCN)C(=O)N[C@@H](CC(C)C)C(=O)N[C@@H](CC(C)C)C(=O)N[C@@H](CCC(=O)O)C(=O)N[C@@H](CO)C(=O)O)[C@@H](C)CC [[BAT].GGPLYKKIIKKLLES] (X1-GGPLYKKIIKKLLES-OH; N-terminus and C-terminus assumed)	0.004 %ID/g	0.0003 %ID/g	0.0021 %ID/g	0.50	7.00	–	–	–	–
(Ac.CCAcm GCAcm PLYKKIIKKLLES)2 BSME: PF4-derived peptide dimer linked by bis-succinimidylmethylether, Cys(Acm)-Gly-Cys(Acm) Tc-99m binding moiety	–	–	–	0.84	7.45	0.0082 % ID/g	0.010 % ID/g	0.0011 % ID/g	–
Ac.CGGGPLYKKIIKKLLES: Tc-99m labeled platelet factor 4-derived peptide reagent (Ac-CGGGPLYKKIIKKLLES; also: Tc-99m labeled)	–	–	–	0.74	4.70	0.0235 % ID/g	0.032 % ID/g	0.0050 % ID/g	–
Ac.KKKKKCAcm GCAcm GGPLYKKIIKKLLES: Tc-99m labeled platelet factor 4-derived peptide reagent	–	–	–	0.93	5.60	0.0061 % ID/g	0.006 % ID/g	0.0019 % ID/g	much greater extent of localization of radioactivity in the leg bearing the experimentallly-infected site compared to the non-infected contralateral leg

Reference: patent publication US6107459A, “Technetium-99m labeled peptides for diagnostic imaging” (Diatide, Inc., priority 1995, dated 2000)
